Legend:
Assay type in all cases: in vivo
Set-up in all cases: key: 5=total damage to plant; 0=no damage to plant
SETFA = Setaria faberi [1] = assay: Post-emergence herbicidal activity, glasshouse pot test; settings: for SEFTA damage score (0-5): comparison of enantiomers; for SETFA damage score (0-5): 1000 g/Ha, evaluated after 13 days
Description: (§1) Seeds of a variety of test species were sown in standard soil in pots. After 8 days cultivation (post-emergence) under controlled conditions in a glasshouse (at 24/16° C., day/night; 14 hours light; 65% humidity), the plants were sprayed with an aqueous spray solution derived from the formulation of the technical active ingredient in acetone/water (50:50) solution containing 0.5% Tween 20 (polyoxyethelyene sorbitan monolaurate, CAS RN 9005-64-5). The test plants were then grown in a glasshouse under controlled conditions (at 24/16° C., day/night; 14 hours light; 65% humidity) and watered twice daily. After 13 days, the test was evaluated (5=total damage to plant; 0=no damage to plant). Pre- and post-emergence testing was carried out as detailed above on the compounds A1, A2, A4 and A5 and their respective S-enantiomers.

[2] = test system: ABUTH = Abutilon theophrasti; assay: as above
Description: as §1

[3] = test system: ECHCG = Echinochloa crus-galli; assay: as above
Description: as §1

LOLPE [4] = assay: as above
Description: as §1

[5] = test system: AMARE = Amaranthus retroflexus; assay: as above
Description: as §1

ZEAMX = Zea mays [6] = assay: as above
Description: as §1

SETFA = Setaria faberi [7] = assay: Pre-emergence herbicidal activity, glasshouse pot test; settings: for SEFTA damage score (0-5): comparison of enantiomers; for SETFA damage score (0-5): 1000 g/Ha, evaluated after 13 days
Description: as §1, with “After” for “After 8 days”, “for one day (pre-emergence)” for “(post-emergence)”

[8] = test system: ABUTH = Abutilon theophrasti; assay: as above
Description: as §1, with “After” for “After 8 days”, “for one day (pre-emergence)” for “(post-emergence)”

[9] = test system: ECHCG = Echinochloa crus-galli; assay: as above
Description: as §1, with “After” for “After 8 days”, “for one day (pre-emergence)” for “(post-emergence)”

LOLPE [10] = assay: as above
Description: as §1, with “After” for “After 8 days”, “for one day (pre-emergence)” for “(post-emergence)”

[11] = test system: AMARE = Amaranthus retroflexus; assay: as above
Description: as §1, with “After” for “After 8 days”, “for one day (pre-emergence)” for “(post-emergence)”

ZEAMX = Zea mays [12] = assay: as above
Description: as §1, with “After” for “After 8 days”, “for one day (pre-emergence)” for “(post-emergence)”

[13] = comparison of enantiomers, 62.5 g/Ha
[14] = comparison of enantiomers, 250 g/Ha
[15] = 1000 g/Ha, evaluated after 13 days

| Structure (SMILES) | SEFTA damage score (0-5) (SETFA = Setaria faberi [1]; 62.5 g/Ha) | ABUTH damage score (0-5) [2, 13] | ABUTH damage score (0-5) [2, 14] | ECHCG damage score (0-5) [3, 13] | ECHCG damage score (0-5) [3, 14] | LOLPE damage score (0-5) (LOLPE [4]; [13]) | LOLPE damage score (0-5) (LOLPE [4]; [14]) | AMARE damage score (0-5) [5, 13] | AMARE damage score (0-5) [5, 14] | ZEAMX damage score (0-5) (ZEAMX = Zea mays [6]; [14]) | SEFTA damage score (0-5) (SETFA = Setaria faberi [7]; 250 g/Ha) | ABUTH damage score (0-5) [8, 13] | ABUTH damage score (0-5) [8, 14] | ECHCG damage score (0-5) [9, 13] | ECHCG damage score (0-5) [9, 14] | LOLPE damage score (0-5) (LOLPE [10]; [13]) | AMARE damage score (0-5) [11, 13] | AMARE damage score (0-5) [11, 14] | ZEAMX damage score (0-5) (ZEAMX = Zea mays [12]; [13]) | ZEAMX damage score (0-5) (ZEAMX = Zea mays [12]; [14]) | other results |
| --- | --- | --- | --- | --- | --- | --- | --- | --- | --- | --- | --- | --- | --- | --- | --- | --- | --- | --- | --- | --- | --- |
| COC[C@H]1C(O)N(c2cc(C(C)(C)C)on2)C(=O)N1C (stereo partly drawn) [A4 S-enantiomer, reference compound] | 0 | 0 | 0 | 0 | 1 | 0 | 0 | 0 | 2 | 0 | 0 | 0 | 0 | 0 | 0 | 0 | 1 | 3 | 0 | 0 | SEFTA damage score (0-5) (SETFA = Setaria faberi [1]; 250 g/Ha): 0; ZEAMX damage score (0-5) (ZEAMX = Zea mays [6]; [13]): 0; SEFTA damage score (0-5) (SETFA = Setaria faberi [7]; 62.5 g/Ha): 0; LOLPE damage score (0-5) (LOLPE [10]; [14]): 0 |
| CO[C@H]1C(O)N(c2cc(C(C)(C)C)on2)C(=O)N1C (stereo partly drawn) [A1 S-enantiomer, reference compound] | 0 | 0 | 2 | 1 | 1 | 0 | 1 | 5 | 5 | 1 | 0 | 0 | 0 | 0 | 0 | 0 | 5 | 5 | 0 | 0 | SEFTA damage score (0-5) (SETFA = Setaria faberi [1]; 250 g/Ha): 2; ZEAMX damage score (0-5) (ZEAMX = Zea mays [6]; [13]): 1; SEFTA damage score (0-5) (SETFA = Setaria faberi [7]; 62.5 g/Ha): 0; LOLPE damage score (0-5) (LOLPE [10]; [14]): 0 |
| CCO[C@H]1C(O)N(c2cc(C(C)(C)F)on2)C(=O)N1C (stereo partly drawn) [A5 S-enantiomer, reference compound] | 0 | 0 | 1 | 0 | 0 | 0 | 0 | 1 | 5 | 0 | 0 | 0 | 0 | 0 | 0 | 0 | 5 | 5 | 0 | 0 | SEFTA damage score (0-5) (SETFA = Setaria faberi [1]; 250 g/Ha): 1; ZEAMX damage score (0-5) (ZEAMX = Zea mays [6]; [13]): 0; SEFTA damage score (0-5) (SETFA = Setaria faberi [7]; 62.5 g/Ha): 0; LOLPE damage score (0-5) (LOLPE [10]; [14]): 0 |
| CCO[C@H]1C(O)N(c2cc(C(C)(C)C)on2)C(=O)N1C (single isomer, unassigned) [A2 S-enantiomer, reference compound] | 0 | 1 | 1 | 0 | 1 | 0 | 1 | 5 | 5 | 1 | 0 | 1 | 1 | 0 | 3 | 1 | 5 | 5 | 1 | 1 | – |
| COC[C@@H]1C(O)N(c2cc(C(C)(C)C)on2)C(=O)N1C (stereo partly drawn) [Example A4, (4R)-1-(5-tert-butylisoxazol-3-yl)-5-hydroxy-4-(methoxymethyl)-3-methyl-imidazolidin-2-one] | 1 | 1 | 5 | 0 | 5 | 1 | 5 | 5 | 5 | 5 | 5 | 1 | 3 | 1 | 5 | 0 | 5 | 5 | 0 | 4 | SETFA damage score (0-5) (SETFA = Setaria faberi [1]): 5; SEFTA damage score (0-5) (SETFA = Setaria faberi [1]; 250 g/Ha): 5; ABUTH damage score (0-5) [2, 15]: 5; ECHCG damage score (0-5) [3, 15]: 5; LOLPE damage score (0-5) (LOLPE [4]; [15]): 5; AMARE damage score (0-5) [5, 15]: 5; ZEAMX damage score (0-5) (ZEAMX = Zea mays [6]; [15]): 5; SETFA damage score (0-5) (SETFA = Setaria faberi [7]): 4; ABUTH damage score (0-5) [8, 15]: 5; ECHCG damage score (0-5) [9, 15]: 5; LOLPE damage score (0-5) (LOLPE [10]; [15]): 5; LOLPE damage score (0-5) (LOLPE [10]; [14]): 5; AMARE damage score (0-5) [11, 15]: 5; ZEAMX damage score (0-5) (ZEAMX = Zea mays [12]; [15]): 3 |
| CO[C@@H]1C(O)N(c2cc(C(C)(C)C)on2)C(=O)N1C (stereo partly drawn) [Example A1] | 5 | 2 | 5 | 5 | 5 | 5 | 5 | 5 | 5 | 5 | 5 | 4 | 2 | 5 | 5 | 1 | 5 | 5 | 4 | 5 | SETFA damage score (0-5) (SETFA = Setaria faberi [1]): 5; SEFTA damage score (0-5) (SETFA = Setaria faberi [1]; 250 g/Ha): 5; ABUTH damage score (0-5) [2, 15]: 5; ECHCG damage score (0-5) [3, 15]: 5; LOLPE damage score (0-5) (LOLPE [4]; [15]): 5; AMARE damage score (0-5) [5, 15]: 5; ZEAMX damage score (0-5) (ZEAMX = Zea mays [6]; [15]): 5; ZEAMX damage score (0-5) (ZEAMX = Zea mays [6]; [13]): 5; SETFA damage score (0-5) (SETFA = Setaria faberi [7]): 5; SEFTA damage score (0-5) (SETFA = Setaria faberi [7]; 62.5 g/Ha): 4; ABUTH damage score (0-5) [8, 15]: 5; ECHCG damage score (0-5) [9, 15]: 5; LOLPE damage score (0-5) (LOLPE [10]; [15]): 5; LOLPE damage score (0-5) (LOLPE [10]; [14]): 5; AMARE damage score (0-5) [11, 15]: 5; ZEAMX damage score (0-5) (ZEAMX = Zea mays [12]; [15]): 3 |
| CCO[C@@H]1C(O)N(c2cc(C(C)(C)F)on2)C(=O)N1C (stereo partly drawn) [Example A5] | 5 | 5 | 5 | 5 | 5 | 5 | 5 | 5 | 5 | 5 | 5 | 5 | 5 | 5 | 2 | 4 | 5 | 5 | 5 | 5 | SETFA damage score (0-5) (SETFA = Setaria faberi [1]): 5; SEFTA damage score (0-5) (SETFA = Setaria faberi [1]; 250 g/Ha): 5; ABUTH damage score (0-5) [2, 15]: 5; ECHCG damage score (0-5) [3, 15]: 5; LOLPE damage score (0-5) (LOLPE [4]; [15]): 5; AMARE damage score (0-5) [5, 15]: 5; ZEAMX damage score (0-5) (ZEAMX = Zea mays [6]; [15]): 5; ZEAMX damage score (0-5) (ZEAMX = Zea mays [6]; [13]): 5; SETFA damage score (0-5) (SETFA = Setaria faberi [7]): 5; SEFTA damage score (0-5) (SETFA = Setaria faberi [7]; 62.5 g/Ha): 5; ABUTH damage score (0-5) [8, 15]: 5; ECHCG damage score (0-5) [9, 15]: 5; LOLPE damage score (0-5) (LOLPE [10]; [15]): 5; LOLPE damage score (0-5) (LOLPE [10]; [14]): 5; AMARE damage score (0-5) [11, 15]: 5; ZEAMX damage score (0-5) (ZEAMX = Zea mays [12]; [15]): 3 |
